Results: ChEMBL document CHEMBL1909046, “DrugMatrix in vitro pharmacology data”

What was measured:
[1] = biological target: T1, 5-hydroxytryptamine receptor 2C (Homo sapiens, UniProt P28335); assay: DRUGMATRIX: Serotonin (5-Hydroxytryptamine) 5-HT2C radioligand binding (ligand: [3H] Mesulergine); format: cell membranes, CHO-K1, Membrane; settings: Not Active = under 50% inhibition at 10 µM
T1 sequence (P28335 whole entry): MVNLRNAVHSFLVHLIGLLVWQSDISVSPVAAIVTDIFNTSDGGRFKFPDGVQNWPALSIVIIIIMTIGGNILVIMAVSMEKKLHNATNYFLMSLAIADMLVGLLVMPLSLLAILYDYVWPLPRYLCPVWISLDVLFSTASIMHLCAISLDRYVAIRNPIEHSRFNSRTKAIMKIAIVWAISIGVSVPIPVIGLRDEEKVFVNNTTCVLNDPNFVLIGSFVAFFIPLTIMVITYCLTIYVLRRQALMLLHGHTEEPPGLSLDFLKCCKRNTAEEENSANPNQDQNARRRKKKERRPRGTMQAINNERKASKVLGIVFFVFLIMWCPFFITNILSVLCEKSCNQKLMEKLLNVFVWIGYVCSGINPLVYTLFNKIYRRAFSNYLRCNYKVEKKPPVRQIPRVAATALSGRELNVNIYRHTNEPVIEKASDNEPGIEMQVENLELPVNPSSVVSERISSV

[2] = DRUGMATRIX: Glutamate, Kainate radioligand binding (ligand: [3H] Kainic acid); format: cell membranes, Rattus norvegicus, Wistar, Brain, Membrane; settings: Not Active = under 50% inhibition at 10 µM
[3] = biological target: T2, 3-hydroxy-3-methylglutaryl-coenzyme A reductase (Homo sapiens, UniProt P04035); design: species or system Escherichia coli;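 note: enzyme inhibition assay of HMG-CoA reductase using radiolabeled [14C]HMG-CoA as substrate; in other assays of this panel Not Active means under 50% inhibition at 10 µM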
T2 sequence (P04035 whole entry): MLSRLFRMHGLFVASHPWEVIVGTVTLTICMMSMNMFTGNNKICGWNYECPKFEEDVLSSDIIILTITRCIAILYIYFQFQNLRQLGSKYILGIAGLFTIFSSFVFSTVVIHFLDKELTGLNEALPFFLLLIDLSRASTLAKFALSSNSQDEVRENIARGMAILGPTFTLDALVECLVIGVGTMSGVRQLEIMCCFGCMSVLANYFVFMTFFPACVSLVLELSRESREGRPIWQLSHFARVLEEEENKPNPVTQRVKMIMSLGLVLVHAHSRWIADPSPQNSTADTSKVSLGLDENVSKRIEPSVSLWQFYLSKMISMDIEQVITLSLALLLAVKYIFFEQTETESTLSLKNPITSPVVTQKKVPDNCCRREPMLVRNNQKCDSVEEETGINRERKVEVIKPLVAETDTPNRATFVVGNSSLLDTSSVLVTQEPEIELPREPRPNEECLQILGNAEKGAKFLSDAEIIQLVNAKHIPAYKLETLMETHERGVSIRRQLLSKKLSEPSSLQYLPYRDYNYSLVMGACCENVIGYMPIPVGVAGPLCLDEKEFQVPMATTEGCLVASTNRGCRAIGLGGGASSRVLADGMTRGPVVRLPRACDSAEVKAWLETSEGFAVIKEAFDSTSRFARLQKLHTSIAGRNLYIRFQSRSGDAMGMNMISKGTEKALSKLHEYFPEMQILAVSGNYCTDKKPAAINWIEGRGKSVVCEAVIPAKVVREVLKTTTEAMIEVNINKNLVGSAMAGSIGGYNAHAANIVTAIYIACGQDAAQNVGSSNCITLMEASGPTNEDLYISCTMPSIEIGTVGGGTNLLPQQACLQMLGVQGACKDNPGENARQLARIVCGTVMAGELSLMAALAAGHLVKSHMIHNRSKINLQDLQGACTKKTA

Melanocortin receptor 3 = Melanocortin receptor 3 (Homo sapiens, UniProt P41968); format: cell membranes, HEK293, Membrane; settings: hek293; note: in other assays of this panel Not Active means under 50% inhibition at 10 µM
Sequence of Melanocortin receptor 3 (P41968 whole entry): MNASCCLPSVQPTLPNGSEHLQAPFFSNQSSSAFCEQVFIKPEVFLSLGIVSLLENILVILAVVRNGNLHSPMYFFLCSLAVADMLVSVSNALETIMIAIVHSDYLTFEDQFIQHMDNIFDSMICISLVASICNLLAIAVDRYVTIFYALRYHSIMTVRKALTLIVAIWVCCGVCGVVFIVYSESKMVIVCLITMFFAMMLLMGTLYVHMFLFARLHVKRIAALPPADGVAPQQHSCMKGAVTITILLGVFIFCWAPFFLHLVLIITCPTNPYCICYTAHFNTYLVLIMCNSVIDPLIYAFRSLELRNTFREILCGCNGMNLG

[4] = biological target: T3, Angiotensin-converting enzyme (Oryctolagus cuniculus, UniProt P12822); format: tissue-based, Lung;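 note: enzymatic inhibition of angiotensin-converting enzyme measured with FAPGG as the substrate; in other assays of this panel Not Active means under 50% inhibition at 10 µM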
T3 sequence (P12822 whole entry): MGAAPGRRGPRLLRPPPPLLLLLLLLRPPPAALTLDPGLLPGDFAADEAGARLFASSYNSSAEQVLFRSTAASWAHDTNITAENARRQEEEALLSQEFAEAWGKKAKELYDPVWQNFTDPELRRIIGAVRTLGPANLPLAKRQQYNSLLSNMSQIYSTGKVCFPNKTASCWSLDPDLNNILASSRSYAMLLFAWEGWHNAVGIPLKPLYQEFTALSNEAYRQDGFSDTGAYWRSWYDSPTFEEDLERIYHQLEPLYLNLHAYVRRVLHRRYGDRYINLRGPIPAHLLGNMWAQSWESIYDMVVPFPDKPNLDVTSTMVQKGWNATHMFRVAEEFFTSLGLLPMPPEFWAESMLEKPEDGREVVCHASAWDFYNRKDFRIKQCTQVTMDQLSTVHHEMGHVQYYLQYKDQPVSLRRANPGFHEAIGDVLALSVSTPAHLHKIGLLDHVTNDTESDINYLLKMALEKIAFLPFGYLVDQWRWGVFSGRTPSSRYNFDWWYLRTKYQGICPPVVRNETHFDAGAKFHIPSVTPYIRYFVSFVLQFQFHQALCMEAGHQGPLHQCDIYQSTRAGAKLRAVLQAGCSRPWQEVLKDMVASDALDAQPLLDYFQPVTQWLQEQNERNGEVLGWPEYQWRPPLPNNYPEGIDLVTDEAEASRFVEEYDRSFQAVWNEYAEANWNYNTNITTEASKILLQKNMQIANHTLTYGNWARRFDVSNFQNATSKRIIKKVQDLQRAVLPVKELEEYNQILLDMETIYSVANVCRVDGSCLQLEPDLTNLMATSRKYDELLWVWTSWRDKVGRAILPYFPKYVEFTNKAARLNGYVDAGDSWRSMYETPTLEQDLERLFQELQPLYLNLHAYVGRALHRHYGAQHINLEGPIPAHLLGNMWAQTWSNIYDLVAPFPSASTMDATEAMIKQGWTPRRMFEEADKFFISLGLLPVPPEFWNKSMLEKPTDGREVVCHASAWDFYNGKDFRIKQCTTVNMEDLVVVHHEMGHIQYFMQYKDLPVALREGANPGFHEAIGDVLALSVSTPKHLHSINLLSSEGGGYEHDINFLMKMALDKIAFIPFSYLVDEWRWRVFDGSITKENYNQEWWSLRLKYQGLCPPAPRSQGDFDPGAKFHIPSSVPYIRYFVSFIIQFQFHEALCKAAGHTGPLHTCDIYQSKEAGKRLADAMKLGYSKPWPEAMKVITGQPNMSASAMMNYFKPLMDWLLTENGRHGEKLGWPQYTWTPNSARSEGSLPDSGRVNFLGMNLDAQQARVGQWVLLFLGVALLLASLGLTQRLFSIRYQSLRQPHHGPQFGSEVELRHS

[5] = biological target: Mitogen-activated protein kinase 3 (Homo sapiens, UniProt P27361); assay: DRUGMATRIX: Protein Serine/Threonine Kinase, ERK1 enzyme inhibition (substrate: Myelin Basic Protein); design: species or system Escherichia coli; settings: Not Active = under 50% inhibition at 10 µM
Sequence of Mitogen-activated protein kinase 3 (P27361 whole entry): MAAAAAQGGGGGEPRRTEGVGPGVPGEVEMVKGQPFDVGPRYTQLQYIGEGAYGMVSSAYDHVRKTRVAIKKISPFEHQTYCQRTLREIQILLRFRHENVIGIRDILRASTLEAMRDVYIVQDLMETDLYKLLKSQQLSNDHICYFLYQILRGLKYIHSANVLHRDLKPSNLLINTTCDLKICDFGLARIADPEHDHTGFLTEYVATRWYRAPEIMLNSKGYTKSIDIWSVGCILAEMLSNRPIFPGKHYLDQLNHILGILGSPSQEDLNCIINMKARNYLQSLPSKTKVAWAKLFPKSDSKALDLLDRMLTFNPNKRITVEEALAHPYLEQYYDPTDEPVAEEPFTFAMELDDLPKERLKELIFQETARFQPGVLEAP

[6] = biological target: Mitogen-activated protein kinase 14 (Homo sapiens, UniProt Q16539); design: species or system Escherichia coli;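 note: inhibition of p38alpha enzyme activity in a biochemical kinase assay, with myelin basic protein serving as substrate; in other assays of this panel Not Active means under 50% inhibition at 10 µM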
Sequence of Mitogen-activated protein kinase 14 (Q16539 whole entry): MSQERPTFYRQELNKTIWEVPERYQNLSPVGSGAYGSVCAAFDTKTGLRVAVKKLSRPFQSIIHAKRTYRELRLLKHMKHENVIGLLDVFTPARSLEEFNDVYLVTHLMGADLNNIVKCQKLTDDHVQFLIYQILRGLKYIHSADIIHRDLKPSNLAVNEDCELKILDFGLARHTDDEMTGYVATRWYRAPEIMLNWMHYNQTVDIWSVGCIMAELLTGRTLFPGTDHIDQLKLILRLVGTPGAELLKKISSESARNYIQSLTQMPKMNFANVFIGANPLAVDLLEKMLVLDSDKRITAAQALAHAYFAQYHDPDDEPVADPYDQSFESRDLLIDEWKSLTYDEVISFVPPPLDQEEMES

For `C[C@@H]1O[C@@H](O[C@@H]2C=C3CC[C@@H]4[C@H](CC[C@]5(C)[C@@H](c6ccc(=O)oc6)CC[C@]45O)[C@@]3(C)CC2)[C@H](O)[C@H](O)[C@H]1O` [PROSCILLARIDIN], the IC50 ([1]; cho-k1) was “Not Active”, the IC50 [2] was “Not Active” and the Ki [2] was “Not Active”. For the same compound, the IC50 [3] was “Not Active”, the IC50 (Melanocortin receptor 3) was “Not Active” and the IC50 [4] was “Not Active”. For the same compound, the IC50 [5] was “Not Active” and the IC50 [6] was “Not Active”.

For `CN(C)[C@@H]1C(O)=C(C(N)=O)C(=O)[C@@]2(O)C(O)=C3C(=O)c4c(O)ccc(Cl)c4[C@@](C)(O)[C@H]3C[C@@H]12` [CHLORTETRACYCLINE], the IC50 ([1]; cho-k1) was “Not Active”, the IC50 [2] was “Not Active” and the Ki [2] was “Not Active”. For the same compound, the IC50 [3] was “Not Active”, the IC50 (Melanocortin receptor 3) was “Not Active” and the IC50 [4] was “Not Active”. For the same compound, the IC50 [5] was “Not Active” and the IC50 [6] was “Not Active”.

In the case of `Nc1ccn([C@@H]2O[C@H](CO)[C@@H](O)[C@@H]2O)c(=O)n1` [CYTARABINE], the IC50 ([1]; cho-k1) is reported as “Not Active”, the IC50 [2] is reported as “Not Active” and the Ki [2] is reported as “Not Active”. The IC50 [3] was “Not Active”, the IC50 (Melanocortin receptor 3) was “Not Active” and the IC50 [4] was “Not Active”. The IC50 [5] was “Not Active” and the IC50 [6] was “Not Active”.

With `CC(C)c1cccc(C(C)C)c1O` [PROPOFOL] the IC50 ([1]; read-out: IC50) was 11.6 µM, the Ki ([1]; read-out: Ki) was 6.05 µM and the IC50 [2] was “Not Active”. The Ki [2] was “Not Active”, the IC50 [3] was “Not Active” and the IC50 (Melanocortin receptor 3) was “Not Active”. For the same compound, the IC50 [4] was “Not Active”, the IC50 [5] was “Not Active” and the IC50 [6] was “Not Active”.

In the case of NYSTATIN, the IC50 ([1]; cho-k1) is reported as “Not Active”, the Ki ([1]; cho-k1) is reported as “Not Active” and the IC50 [2] is reported as “Not Active”. For the same compound, the Ki [2] was “Not Active”, the IC50 [3] was “Not Active” and the Ki [3] was “Not Active”. For the same compound, the IC50 (Melanocortin receptor 3) was “Not Active”, the Ki (Melanocortin receptor 3) was “Not Active” and the IC50 [4] was “Not Active”. For the same compound, the Ki [4] was “Not Active”, the IC50 [5] was “Not Active” and the Ki [5] was “Not Active”. For the same compound, the IC50 [6] was “Not Active” and the Ki [6] was “Not Active”.

In the case of `Cc1cc2c(OCC(CNC(C)(C)C)OC(=O)c3ccccc3)cccc2[nH]1` (stereo not given) [BOPINDOLOL], the IC50 ([1]; cho-k1) is reported as “Not Active”, the IC50 [2] is reported as “Not Active” and the Ki [2] is reported as “Not Active”. The IC50 [3] was “Not Active”, the IC50 (Melanocortin receptor 3) was “Not Active” and the IC50 [4] was “Not Active”. For the same compound, the IC50 [5] was “Not Active” and the IC50 [6] was “Not Active”.

In the case of `CC(=O)Oc1ccc(C(c2ccc(OC(C)=O)cc2)c2ccccn2)cc1` [BISACODYL], the IC50 ([1]; cho-k1) is reported as “Not Active”, the IC50 [2] is reported as “Not Active” and the Ki [2] is reported as “Not Active”. The IC50 [3] was “Not Active”, the IC50 (Melanocortin receptor 3) was “Not Active” and the IC50 [4] was “Not Active”. For the same compound, the IC50 [5] was “Not Active” and the IC50 [6] was “Not Active”.

With `C[C@@H](CO)NC(=O)[C@@H]1C=C2c3cccc4[nH]cc(c34)C[C@H]2N(C)C1` [ERGONOVINE] the IC50 ([1]; read-out: IC50) was 0.021 µM, the Ki ([1]; read-out: Ki) was 0.011 µM and the IC50 [2] was “Not Active”. The Ki [2] was “Not Active”, the IC50 [3] was “Not Active” and the IC50 (Melanocortin receptor 3) was “Not Active”. The IC50 [4] was “Not Active”, the IC50 [5] was “Not Active” and the IC50 [6] was “Not Active”.

For `CC(=O)O[C@H]1C(=O)[C@@]2(C)[C@H]([C@H](OC(=O)c3ccccc3)[C@]3(O)C[C@H](OC(=O)[C@H](O)[C@@H](NC(=O)c4ccccc4)c4ccccc4)C(C)=C1C3(C)C)[C@]1(OC(C)=O)CO[C@@H]1C[C@@H]2O` [PACLITAXEL], the IC50 ([1]; cho-k1) was “Not Active”, the IC50 [2] was “Not Active” and the Ki [2] was “Not Active”. The IC50 [3] was “Not Active”, the IC50 (Melanocortin receptor 3) was “Not Active” and the IC50 [4] was “Not Active”. The IC50 [5] was “Not Active” and the IC50 [6] was “Not Active”.
